In test [1] the target is T1, AHR (Homo sapiens, UniProt P35869).
T1 sequence (P35869 11-848): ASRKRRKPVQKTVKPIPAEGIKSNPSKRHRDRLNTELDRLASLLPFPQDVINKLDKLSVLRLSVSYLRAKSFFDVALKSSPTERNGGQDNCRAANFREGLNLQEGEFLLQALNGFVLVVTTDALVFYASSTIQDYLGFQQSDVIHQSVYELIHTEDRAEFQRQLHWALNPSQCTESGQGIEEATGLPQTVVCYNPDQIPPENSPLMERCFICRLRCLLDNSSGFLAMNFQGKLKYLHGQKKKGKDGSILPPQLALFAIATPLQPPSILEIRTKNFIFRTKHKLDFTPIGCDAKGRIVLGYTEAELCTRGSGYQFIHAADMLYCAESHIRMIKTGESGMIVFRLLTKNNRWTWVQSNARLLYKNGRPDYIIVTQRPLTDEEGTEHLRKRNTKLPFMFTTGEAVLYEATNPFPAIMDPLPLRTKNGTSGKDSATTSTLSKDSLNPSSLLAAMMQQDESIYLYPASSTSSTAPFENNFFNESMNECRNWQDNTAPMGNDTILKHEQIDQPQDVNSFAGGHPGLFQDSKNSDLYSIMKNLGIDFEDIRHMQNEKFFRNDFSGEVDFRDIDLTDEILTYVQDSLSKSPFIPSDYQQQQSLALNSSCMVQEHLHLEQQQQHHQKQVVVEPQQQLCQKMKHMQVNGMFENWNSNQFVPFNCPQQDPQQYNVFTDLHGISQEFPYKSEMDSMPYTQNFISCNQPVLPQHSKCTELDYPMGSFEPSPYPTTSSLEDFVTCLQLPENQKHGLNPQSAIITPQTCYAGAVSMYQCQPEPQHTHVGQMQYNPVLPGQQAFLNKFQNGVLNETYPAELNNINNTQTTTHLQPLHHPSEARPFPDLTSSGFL
As to the kind of experiment: CYP1A1 expression in CD3/CD28 activated human T cells (qRT-PCR). It is filed as cell-based. On the set-up: endogenous in cells. Particulars: 24 hours. Here is the method:
AHR plays a key role in immune cells and its' inhibition is proposed to reverse immune suppression and activate T cells. The ability of Compound A to inhibit AHR-dependent CYP1A1 expression and cytokine production was assessed in primary human T cells. AHR directly regulates the expression of the immune suppressive cytokine IL-22. Human T cells isolated from healthy donor PBMCs were activated with CD3/CD28 tetramer and incubated for 24 hours with Compound A. Cell pellets were processed for RNA isolation and CYP1A1 analysis by quantitative reverse-transcriptase polymerase chain reaction. For the cytokine analysis assay, CD3/CD28 activated T cells were treated with Compound A, and culture supernatants were collected after 48 hours for analysis of IL-22 levels using Meso Scale Discovery V-plex IL-22 plates. Compound A inhibited AHR-dependent gene expression in activated human T cells by decreasing expression of CYP1A1 in a concentration-dependent manner.
For orientation: Real-time PCR tracks product formation cycle by cycle.

The target of test [2] is T2, AHR (Mus musculus, UniProt P30561).
T2 sequence (P30561 10-805): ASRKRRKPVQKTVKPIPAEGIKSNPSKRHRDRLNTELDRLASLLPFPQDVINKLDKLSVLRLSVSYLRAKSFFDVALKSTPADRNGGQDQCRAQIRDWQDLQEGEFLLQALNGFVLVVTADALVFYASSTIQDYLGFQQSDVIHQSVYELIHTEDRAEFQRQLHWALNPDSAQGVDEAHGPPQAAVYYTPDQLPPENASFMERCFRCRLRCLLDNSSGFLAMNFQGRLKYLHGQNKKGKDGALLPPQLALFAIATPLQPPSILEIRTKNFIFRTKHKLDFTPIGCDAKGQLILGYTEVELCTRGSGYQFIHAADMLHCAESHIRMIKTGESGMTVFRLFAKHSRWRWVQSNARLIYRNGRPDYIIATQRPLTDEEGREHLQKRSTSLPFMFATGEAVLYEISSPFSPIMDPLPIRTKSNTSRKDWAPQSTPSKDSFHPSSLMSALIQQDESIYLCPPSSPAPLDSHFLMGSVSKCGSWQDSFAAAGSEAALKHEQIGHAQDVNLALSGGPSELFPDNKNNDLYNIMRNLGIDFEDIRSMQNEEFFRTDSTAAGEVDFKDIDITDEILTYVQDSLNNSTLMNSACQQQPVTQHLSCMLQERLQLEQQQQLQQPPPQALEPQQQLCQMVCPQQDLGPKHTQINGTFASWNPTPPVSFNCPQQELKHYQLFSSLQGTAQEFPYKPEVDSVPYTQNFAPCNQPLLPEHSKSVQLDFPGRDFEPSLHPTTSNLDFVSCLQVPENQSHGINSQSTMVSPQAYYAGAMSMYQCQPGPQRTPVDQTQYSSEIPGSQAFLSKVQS
The test can be described thus: AHR-dependent Cyp1A1 expression (P450-Glo) in mouse Hepa1.6 cells stimulated with VAF347. It is filed as cell-based. The note with it: read-out: IC50, AHR-dependent expression of Cyp1A1; murine Hepa1.6 cells, 2 μM VAF347, 24 hours, average. The method, then: The ability of Compound A to inhibit AHR-dependent Cyp1A1 gene expression was examined in vitro by measuring changes in Cyp1A1 enzymatic activity in 2 rodent hepatoma cell lines following AHR agonist stimulation. Mouse Hepa1.6 and rat H411E hepatoma cells were treated with AHR agonists VAF347 and L-kynurenine, respectively, in the presence of Compound A at multiple concentrations for 24 hours. The inhibition of Cyp1A1 expression was subsequently evaluated by measuring Cyp1A1 enzyme activity using P450-Glo assays.

This passage reports IC50 results from US20230026232A1, “AHR INHIBITORS AND USES THEREOF” (Ikena Oncology, Inc., priority 2019, published 2023).

SMILES strings stand for the structures.

Take `CC(C)c1cnn2c(N[C@@H]3CCc4[nH]c5ccccc5c4C3)nc(-c3cncc(F)c3)nc12` [Compound A, (R)—N-(2-(5-fluoropyridin-3-yl)-8-isopropylpyrazolo[1,5-a][1,3,5]triazin-4-yl)-2,3,4,9-tetrahydro-1H-carbazol-3-amine]: the half-inhibitory concentration (IC50) – broadly, the concentration that gives 50% inhibition – in test [1] worked out at 63 nM; in test [2], 36 nM.
